Measured values published in US6426202B1, “Nystatin-resistant Aspergillus terreus CLS 247-13, KCTC 0673BP for preparing triol heptanoic acid employing the same” (priority 1999, dated 2002).

Experiments:
[1] = system: mutant strain Aspergillus terreus CLS247-13; assay: Minimal inhibitory concentration of nystatin, mutant strain; format: cell-based
Description: (§1) After incubating the culture in a liquid minimal medium containing nystatin for 1.5-3 hours, it was washed with saline solution, concentrated, diluted properly, and spreaded onto solid minimal medium containing 150 μg/ml of nystatin, and then the resultant was incubated at 28° C. for 8-15 days to isolate viable mutant strains. The isolated mutant strains resistant to nystatin, showing various morphological characteristics, were subcultured on solid minimal media containing increasing concentrations of nystatin (i.e., 150, 160, 170, 180, 190 and 200 […]) to select mutants showing increased resistance. The nystatin-resistant mutants thus obtained were incubated in an agar slant medium for 15-20 days. The spores formed were recovered in a 20% glycerin solution and subjected to liquid culture as disclosed in Example 2 below. As a result, the productivity of mevinolinic acid decreased and a variety of its analogues appeared. The mutant showing a high productivity of triol heptanoic acid of at least 11.5 g/L was selected and named ‘Aspergillus terreus CLS247-13’. Aspergillus terreus CLS247-13 maintained morphological characteristics, resistance to nystatin and high productivity of triol heptanoic acid constantly on a solid minimal medium containing 2 g/L of yeast extract for 10 generations. […]

[2] = system: parent strain Aspergillus terreus CLS216-7; assay: Minimal inhibitory concentration of nystatin, parent strain; format: cell-based; conditions: parent strain CLS216-7
Description: as §1

C[C@@H]1[C@H](O)[C@@H](C)/C=C/C=C/CC/C=C/C=C/C=C/C=C/C(O[C@H]2O[C@H](C)[C@@H](O)[C@H](N)[C@@H]2O)CC2O[C@](O)(CC(O)C(O)CCC(O)CC(O)CC(O)CC(=O)O[C@H]1C)CC(O)C2C(=O)O (stereo partly drawn) [nystatin]
Minimal inhibitory conc. of nystatin ([1]; mutant strain CLS247-13): ≦200 μg/ml
increase of minimal inhibitory concentration of nystatin (resistance to nystatin) compared with parent strain ([1]; mutant strain CLS247-13 compared with parent strain CLS216-7): 8 fold
Minimal inhibitory conc. of nystatin [2]: ≦25 μg/ml
